Patent publication US20230416334A1, “CELL-PENETRATING PEPTIDES” (FUNDACIÓ HOSPITAL UNIVERSITARI VALL D'HEBRON - INSTITUT DE …, priority 2020, published 2023)

Assays:
[1] = tested on: binding of CD300f to plastic-immobilized SM; test: Peptide inhibition of CD300f-Ig binding to plastic-immobilized sphingomyelin (epitope mapping); parameters: species or system human; conditions: co-incubation of peptide with CD300f-Ig, FIG. 1
Excerpt: FIG. 1, related to Example 1, is a bar diagram showing the binding capacity of the indicated peptides to sphingomyelin (SM). They y-axis represents absorbance (%). “C” represents the control; “1” represents Peptide 1 of SEQ ID NO: 12; “2” represents Peptide 2 of SEQ ID NO: 13; “3” represents Peptide 3 of SEQ ID NO: 14; “4” represents Peptide 4 of SEQ ID NO: 15; “5” represents Peptide 5 of SEQ ID NO: 5; “6” represents Peptide 6 of SEQ ID NO: 6; “7” represents Peptide 7 of SEQ ID NO: 7; “8” represents Peptide 8 of SEQ ID NO: 16; and “9” represents Peptide 9 of SEQ ID NO: 17; and “10” represents Peptide 10 of SEQ ID NO: 18; FIG. 2, related to Example 1, is a bar diagram showing the binding capacity of the indicated peptides to sphingomyelin (SM). They y-axis represents absorbance (%). “A” represents the control; “B” represents DMSO; “C” represents Peptide 1; “D” represents Peptide 2; “E” represents Peptide 7; “F” represents Peptide 7 C5S (SEQ ID NO: 8); “G” represents Peptide 7 W3A (SEQ ID NO: 9); and “H” represents Peptide 7 R6G (SEQ ID NO: 10). In an attempt to identify the sites of interaction of CD300f with Sphingomyelin (SM), the inventors performed a peptide-based epitope mapping approach. 24 overlapping, 20mer peptides were designed with a 15-aa overlap between successive peptides covering the Ig and stem extracellular sequences of human CD300f. It was analyzed whether any of those 24 peptides could inhibit binding of CD300f to plastic-immobilized SM. Only three of them, peptides 5 (SEQ ID NO:5), 6 (SEQ ID NO:6) and 7 (SEQ ID NO:7), which contained the sequence […] Moreover, different amino acids of the sequence […] NO: 2) were mutated to try to map the interaction with the phospholipid.

HCT116 cells = test: Internalization of 5-DTAF labelled polymeric micelles by flow cytometry; type: cell-based; conditions: 1 mg/ml on 5-DTAF labelled Pluronic F127 micelles, vs non conjugated micelles, FIGS. 4 and 5
Excerpt: FIG. 4, related to Example 2, is a diagram showing the cell internalization rates of polymeric micelles conjugated to the indicated peptides in HCT116 cells. The y-axis represents fluorescence intensity (F.U.) (Mean±SEM) and the x-axis represents the time (min).
FIG. 5, related to Example 2, is a diagram showing the cell internalization rates of polymeric micelles conjugated to the indicated peptides in HCT116 cells. The y-axis represents fluorescence intensity (F.U.) (Mean±SEM) and the x-axis represents the time (min).
Polymeric micelles (PM) were prepared using the film hydration technique. Briefly, the polymers were individually weighted and dissolved in a mixture of methanol:ethanol (1:1). […]
Flow cytometry was used to verify the internalization of 5-DTAF-fluorescently labeled PM in MCF-7 and HCT116 cell lines. For the quantitative fluorescence-activated cell sorting (FACS), 2×10^4 cells were seeded in complete medium in 96 well plates for 24 hours to allow adhesion. […] The plate was analyzed in a cytometer Fortessa (BD Biosciences, USA). Data was analyzed with FCS Express 4 Flow research edition software (De Novo Software, Los Angeles, USA). […] For each sample, at least 10000 individual cells were collected and the mean fluorescence intensity was evaluated. […]

Molecule	inhibition of binding of CD300f to sphingomyelin (SM) [1]	internalization of peptide- or protein-functionalized micelles (HCT116 cells)
CVYRSGWETYLKWWCRGAIW [Peptide 5]	inhibited binding	–
CD300f: whole CD300f protein, conjugated onto micelles and tested as CPP (protein, UniProt Q8TDQ1 20-290, looked up, conjugated onto micelles, whole CD300f protein, conjugated onto micelles and tested as CPP) CMRF35-like molecule 1: TQITGPTTVNGLERGSLTVQCVYRSGWETYLKWWCRGAIWRDCKILVKTSGSEQEVKRDRVSIKDNQKNRTFTVTMEDLMKTDADTYWCGIEKTGNDLGVTVQVTIDPAPVTQEETSSSPTLTGHHLDNRHKLLKLSVLLPLIFTILLLLLVAASLLAWRMMKYQQKAAGMSPEQVLQPLEGDLCYADLTLQLAGTSPQKATTKLSSAQVDQVEVEYVTMASLPKEDISYASLTLGAEDQEPTYCNMGHLSSHLPGRGPEEPTEYSTISRP	–	better CPPs than the ones currently available in the market

Continued, in another order:

inhibition of binding of CD300f to sphingomyelin (SM) [1]	Molecule	internalization of peptide- or protein-functionalized micelles (HCT116 cells)
inhibited binding	GWETYLKWWCRGAIWRDCKI [Peptide 6]	–
inhibited binding	LKWWCRGAIWRDCKILVKTS [Peptide 7]	–
